# In patent US20240344241A1, “PROTEINACEOUS MOLECULES AND USES THEREFOR” (THE UNIVERSITY OF QUEENSLAND, priority 2021, published 2024):
# Where two headings read alike, the source gives them in different places. Bridge positions count the residues as written; N and C are the ends. Ends that are not written are not given here. Peptide text beside a SMILES is read from it.
# What was measured:
# [1] = target: T1, biotinylated human β-FXIIa (Homo sapiens, UniProt P00748); test: Surface plasmon resonance binding to FXIIa
# T1 construct: purchased Molecular Innovations
# T1 sequence (P00748 373-615 limits assumed, other chains not shown): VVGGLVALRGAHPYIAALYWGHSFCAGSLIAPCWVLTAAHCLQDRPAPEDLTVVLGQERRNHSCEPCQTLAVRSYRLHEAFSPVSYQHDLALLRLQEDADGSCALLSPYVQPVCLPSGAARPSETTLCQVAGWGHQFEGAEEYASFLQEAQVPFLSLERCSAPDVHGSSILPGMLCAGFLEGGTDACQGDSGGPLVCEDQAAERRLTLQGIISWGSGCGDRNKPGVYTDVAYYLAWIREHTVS
# Experimental: Binding kinetics of each peptide towards biotinylated human β-FXIIa (Molecular Innovations) and non-labelled zymogen FXII (Haematologic Technologies) were determined using a Biacore T200 machine (Cytiva). For β-FXIIa binding measurements, the running buffer was HBS-EP+(10 mM HEPES, 150 mM NaCl, 3 mM EDTA and 0.05% (v/v) surfactant P20, pH 7.4). Biotinylated β-FXIIa was immobilized on a Sensor Chip CAP (Cytiva) using Biotin CAPture Reagent (Cytiva). A series of concentrations of each peptide were injected as analyte and the binding kinetics were modelled using a 1:1 binding model. Regeneration of sensor surface was performed after each measurement cycle. For FXII binding measurements, the running buffer was PBST (137 mM NaCl, 2.7 mM KCl, 10 mM Na2HPO4, 1.8 mM KH2PO4, 0.05% Tween-20). Non-labelled FXII was immobilized on a Sensor Chip CM5 (Cytiva) using Amine Coupling Kit (Cytiva), achieving a final immobilization level of 2500 RU. Each peptide was flowed through immobilized FXII at 5 μM for 60 s and allowed dissociation for 150 s.
# [2] = target: T2, bovine trypsin (Bos taurus, UniProt P00760); test: Surface plasmon resonance binding to trypsin
# T2 sequence (P00760 24-246): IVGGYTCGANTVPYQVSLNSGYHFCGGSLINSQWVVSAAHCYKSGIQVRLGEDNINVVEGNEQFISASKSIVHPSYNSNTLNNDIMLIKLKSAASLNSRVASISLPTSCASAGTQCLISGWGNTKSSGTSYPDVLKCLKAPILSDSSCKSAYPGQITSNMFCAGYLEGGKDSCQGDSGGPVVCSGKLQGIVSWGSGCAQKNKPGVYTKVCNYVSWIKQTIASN
# [3] = target: T3, Human β-FXIIa (Homo sapiens, UniProt P00748); test: FXIIa competitive inhibition assay, colorimetric substrate Ac-QRFR-pNA; type: biochemical
# T3 construct: Human β-FXIIa was obtained from Molecular Innovations, together with human FXa, human FXIa, human α-thrombin, and human plasma kallikrein; purchased Molecular Innovations; host or cells: purified from human plasma
# T3 sequence (P00748 373-615 limits assumed, other chains not shown): as the sequence (P00748 373-615 limits assumed, other chains not shown) above
# Experimental: (§1) The activity of acyclic and cyclic MCoFx1-5 and analogues thereof was assessed in competitive inhibition assays, as previously described in Swedberg et al. (2016) J Med Chem, 59: 7287-7292. Human β-FXIIa was obtained from Molecular Innovations, together with human FXa, human FXIa, human α-thrombin, and human plasma kallikrein. Human cationic trypsin and human plasmin were obtained from Sigma-Aldrich, and recombinant human matriptase was sourced from R&D Systems. Recombinant human urokinase (uPA) and recombinant human tissue plasminogen activator (tPA) were expressed in Expi293 cells, as previously described in Li et al. (2019) Chembiochem, 20: 46-50. FXIIa inhibition assays were performed in clear, low-binding 96-well plates using 250 μL (final volume) of assay buffer (0.1 M Tris-HCl pH 8.0, 0.1 M NaCl, 10 mM CaCl2 and 0.005% Triton X-100). Inhibitors were serially diluted and incubated with 10 nM FXIIa at room temperature to reach equilibrium. After adding 100 μM Ac-QRFR-pNA substrate (KM=162 μM), enzymatic activity was measured by monitoring release of the pNA moiety using a TECAN infinite M1000 Pro plate reader (A=405 nm, reading interval, 10 s; assay time course, 7 min). Assays were conducted in three times in duplicate. Substrate kinetic constants (Michaelis-Menten) and inhibition constants (Morrison K) were determined by non-linear regression using Prism 7 (GraphPad). Selectivity assays with off-target proteases were performed in a similar way, except that different concentrations of enzyme and substrate were used, as indicated in Table 16. For assays using a fluorescent substrate (peptide-4-methylcoumaryl-7-amide, MCA), black low-binding 96-well plates were used and activity was measured using a TECAN infinite M1000 pro plate reader (λex 360 nm, λem 460 nm, reading interval, 30 s; assay time course, 5-30 min).
# [4] = Stability in human serum
# Experimental: Briefly, peptides were incubated at a final concentration of 30 μM in human serum (human male AB serum, Sigma-Aldrich) at 37° C. for 0, 1, 12 and 24 h. The reaction was stopped at designated times, with the serum proteins being denatured by addition of two volumes of acetonitrile (v/v). The samples were then spun at 17,000 g for 10 min and the amount of peptide in the supernatant was quantified using analytical HPLC. The percentage of peptide remaining at 1, 12 and 24 h was calculated using the area of the serum-treated peptide peak from 0 h as 100%.
# [5] = target: T4, Rec. human matriptase (Homo sapiens, UniProt Q9Y5Y6); test: Matriptase inhibition assay; type: biochemical
# T4 construct: purchased R&D Systems
# T4 sequence (Q9Y5Y6 615-855 limits assumed): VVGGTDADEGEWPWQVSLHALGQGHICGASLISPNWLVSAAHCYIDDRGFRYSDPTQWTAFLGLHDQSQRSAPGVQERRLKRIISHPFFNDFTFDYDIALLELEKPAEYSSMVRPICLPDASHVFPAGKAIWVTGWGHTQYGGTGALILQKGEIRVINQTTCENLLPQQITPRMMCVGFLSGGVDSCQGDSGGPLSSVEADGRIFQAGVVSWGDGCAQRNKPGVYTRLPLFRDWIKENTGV
# Experimental: as §1
# [6] = target: T5, Human plasmin (Homo sapiens, UniProt P00747); test: Plasmin inhibition assay; type: biochemical
# T5 construct: Human cationic trypsin and human plasmin were obtained from Sigma-Aldrich, and recombinant human matriptase was sourced from R&D Systems; purchased Sigma-Aldrich; host or cells: purified from human plasma
# T5 sequence (P00747 581-810 limits assumed): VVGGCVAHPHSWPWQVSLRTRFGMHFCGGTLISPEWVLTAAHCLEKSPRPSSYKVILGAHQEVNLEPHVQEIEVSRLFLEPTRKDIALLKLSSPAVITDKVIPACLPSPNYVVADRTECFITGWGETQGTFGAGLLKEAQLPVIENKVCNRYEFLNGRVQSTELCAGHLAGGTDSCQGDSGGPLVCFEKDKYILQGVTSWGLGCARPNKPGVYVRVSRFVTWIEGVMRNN
# T5 sequence (P00747 97-580 partner limits assumed): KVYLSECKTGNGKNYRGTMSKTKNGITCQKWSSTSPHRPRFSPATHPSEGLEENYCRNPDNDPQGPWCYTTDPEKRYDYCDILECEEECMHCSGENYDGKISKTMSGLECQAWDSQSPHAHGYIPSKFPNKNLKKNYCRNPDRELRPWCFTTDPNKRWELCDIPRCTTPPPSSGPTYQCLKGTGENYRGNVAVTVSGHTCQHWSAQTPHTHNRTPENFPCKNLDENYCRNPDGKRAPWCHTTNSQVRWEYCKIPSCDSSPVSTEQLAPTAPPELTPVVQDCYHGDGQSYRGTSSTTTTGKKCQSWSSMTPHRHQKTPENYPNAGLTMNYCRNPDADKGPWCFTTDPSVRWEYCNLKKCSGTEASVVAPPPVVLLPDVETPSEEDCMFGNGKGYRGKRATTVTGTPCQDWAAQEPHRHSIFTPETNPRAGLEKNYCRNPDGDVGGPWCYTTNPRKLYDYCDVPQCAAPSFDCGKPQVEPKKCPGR
# Experimental: as §1
# [7] = target: T6, Human FXa (Homo sapiens, UniProt P00742); test: FXa inhibition assay; type: biochemical
# T6 construct: Human β-FXIIa was obtained from Molecular Innovations, together with human FXa, human FXIa, human α-thrombin, and human plasma kallikrein; purchased Molecular Innovations; host or cells: purified from human plasma
# T6 sequence (P00742 235-488 limits assumed): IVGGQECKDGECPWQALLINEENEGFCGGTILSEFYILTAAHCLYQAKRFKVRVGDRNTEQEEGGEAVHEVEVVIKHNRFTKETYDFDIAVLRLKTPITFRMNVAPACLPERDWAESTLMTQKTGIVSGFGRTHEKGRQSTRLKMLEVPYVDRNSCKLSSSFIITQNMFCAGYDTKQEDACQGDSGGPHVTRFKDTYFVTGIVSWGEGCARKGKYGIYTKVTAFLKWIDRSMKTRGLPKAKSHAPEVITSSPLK
# T6 sequence (P00742 41-179 partner limits assumed): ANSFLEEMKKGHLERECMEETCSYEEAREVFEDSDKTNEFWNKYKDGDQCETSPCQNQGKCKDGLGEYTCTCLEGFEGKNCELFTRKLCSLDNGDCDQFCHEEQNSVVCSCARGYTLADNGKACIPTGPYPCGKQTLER
# Experimental: as §1
# [8] = target: T7, Human trypsin (Homo sapiens, UniProt P07477); test: Trypsin competitive inhibition assay; type: biochemical
# T7 construct: purchased Sigma-Aldrich; host or cells: purified from human tissue
# Experimental: as §1
# [9] = target: T8, Human plasma kallikrein (Homo sapiens, UniProt P03952); test: Plasma kallikrein inhibition assay; type: biochemical
# T8 construct: Human β-FXIIa was obtained from Molecular Innovations, together with human FXa, human FXIa, human α-thrombin, and human plasma kallikrein; purchased Molecular Innovations; host or cells: purified from human plasma
# T8 sequence (P03952 391-638 limits assumed): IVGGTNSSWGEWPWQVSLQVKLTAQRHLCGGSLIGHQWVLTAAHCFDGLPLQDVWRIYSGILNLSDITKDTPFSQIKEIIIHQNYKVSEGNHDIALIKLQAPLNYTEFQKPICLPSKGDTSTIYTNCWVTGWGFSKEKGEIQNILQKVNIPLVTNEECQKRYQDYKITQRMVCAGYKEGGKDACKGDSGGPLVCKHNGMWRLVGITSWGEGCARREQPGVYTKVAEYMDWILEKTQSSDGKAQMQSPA
# T8 sequence (P03952 20-390 partner limits assumed): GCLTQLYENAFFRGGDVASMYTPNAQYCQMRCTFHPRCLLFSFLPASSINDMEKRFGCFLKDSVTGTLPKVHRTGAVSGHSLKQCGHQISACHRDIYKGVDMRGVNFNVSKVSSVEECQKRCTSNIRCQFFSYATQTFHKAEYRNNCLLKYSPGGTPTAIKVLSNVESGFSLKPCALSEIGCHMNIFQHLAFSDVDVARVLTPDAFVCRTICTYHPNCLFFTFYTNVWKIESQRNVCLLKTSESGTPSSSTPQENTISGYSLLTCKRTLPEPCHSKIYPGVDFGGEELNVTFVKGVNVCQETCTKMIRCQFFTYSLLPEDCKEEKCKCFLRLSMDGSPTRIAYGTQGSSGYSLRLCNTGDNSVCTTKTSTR
# Experimental: as §1
# [10] = target: T9, Human FXIa (Homo sapiens, UniProt P03951); test: FXIa inhibition assay; type: biochemical
# T9 construct: Human β-FXIIa was obtained from Molecular Innovations, together with human FXa, human FXIa, human α-thrombin, and human plasma kallikrein; purchased Molecular Innovations; host or cells: purified from human plasma
# T9 sequence (P03951 388-625 limits assumed): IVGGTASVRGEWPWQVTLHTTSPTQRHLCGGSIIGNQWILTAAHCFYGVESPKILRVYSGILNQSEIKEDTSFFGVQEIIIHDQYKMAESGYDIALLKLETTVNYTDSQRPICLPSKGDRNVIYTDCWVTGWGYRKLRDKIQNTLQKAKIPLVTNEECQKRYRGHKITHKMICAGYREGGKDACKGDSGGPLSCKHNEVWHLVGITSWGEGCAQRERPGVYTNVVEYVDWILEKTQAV
# T9 sequence (P03951 19-387 partner limits assumed): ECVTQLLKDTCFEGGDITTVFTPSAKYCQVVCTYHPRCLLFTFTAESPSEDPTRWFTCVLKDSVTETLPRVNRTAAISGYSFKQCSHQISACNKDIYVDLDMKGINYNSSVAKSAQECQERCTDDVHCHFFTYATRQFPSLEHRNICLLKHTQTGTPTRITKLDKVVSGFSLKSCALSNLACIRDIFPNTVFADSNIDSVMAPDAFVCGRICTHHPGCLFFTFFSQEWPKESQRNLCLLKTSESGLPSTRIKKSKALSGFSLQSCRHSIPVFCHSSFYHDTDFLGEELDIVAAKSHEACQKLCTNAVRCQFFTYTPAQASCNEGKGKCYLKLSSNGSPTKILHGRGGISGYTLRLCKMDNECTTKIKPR
# Experimental: as §1
# [11] = target: T10, Human thrombin (Homo sapiens, UniProt P00734); test: Thrombin inhibition assay; type: biochemical
# T10 construct: Human β-FXIIa was obtained from Molecular Innovations, together with human FXa, human FXIa, human α-thrombin, and human plasma kallikrein; purchased Molecular Innovations; host or cells: purified from human plasma
# Experimental: as §1
# [12] = target: T11, Rec. human uPA (Homo sapiens, UniProt P00749); test: uPA inhibition assay; type: biochemical
# T11 construct: made in house; host or cells: Expi293 cells
# Experimental: as §1
# [13] = target: T12, Rec. human tPA (Homo sapiens, UniProt P00750); test: tPA inhibition assay; type: biochemical
# T12 construct: made in house; host or cells: Expi293 cells
# T12 sequence (P00750 36-562): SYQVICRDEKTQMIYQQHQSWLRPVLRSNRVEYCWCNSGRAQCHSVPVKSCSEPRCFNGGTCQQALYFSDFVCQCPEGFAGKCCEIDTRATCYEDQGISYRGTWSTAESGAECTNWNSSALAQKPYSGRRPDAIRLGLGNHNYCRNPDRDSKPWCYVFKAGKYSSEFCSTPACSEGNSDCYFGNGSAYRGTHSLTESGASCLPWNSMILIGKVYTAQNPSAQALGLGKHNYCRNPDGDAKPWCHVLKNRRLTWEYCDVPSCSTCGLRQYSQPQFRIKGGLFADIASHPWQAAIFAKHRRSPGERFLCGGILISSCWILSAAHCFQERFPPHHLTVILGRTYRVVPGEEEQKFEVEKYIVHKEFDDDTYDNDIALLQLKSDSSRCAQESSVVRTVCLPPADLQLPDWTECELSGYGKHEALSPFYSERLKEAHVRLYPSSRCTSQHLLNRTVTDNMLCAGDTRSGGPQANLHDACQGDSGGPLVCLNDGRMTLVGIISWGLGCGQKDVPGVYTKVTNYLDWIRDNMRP
# Experimental: as §1
compound,measurement,setting,value
"CC[C@H](C)[C@H](NC(=O)CNC(=O)CNC(=O)[C@@H](N)CC(=O)O)C(=O)N[C@H]1CSSC[C@@H]2NC(=O)[C@H](C)NC(=O)CNC(=O)[C@@H]3CCCN3C(=O)[C@@H]3CSSC[C@@H](C(=O)NCC(=O)N[C@@H](CO)C(=O)NCC(=O)N[C@@H](Cc4ccc(O)cc4)C(=O)O)NC(=O)[C@H](Cc4ccccc4)NC(=O)[C@H](CCCNC(=N)N)NC(=O)[C@H]([C@@H](C)O)NC(=O)[C@H](C)NC(=O)[C@H](CCCNC(=N)N)NC(=O)[C@H](CSSC[C@H](NC(=O)[C@H](CC(C)C)NC(=O)[C@H](CCCNC(=N)N)NC(=O)CNC(=O)[C@H]([C@@H](C)CC)NC(=O)[C@H](CCCNC(=N)N)NC(=O)[C@@H]4CCCN4C1=O)C(=O)N[C@@H](CCCNC(=N)N)C(=O)N[C@@H](CCCNC(=N)N)C(=O)N[C@@H](CC(=O)O)C(=O)N[C@@H](CO)C(=O)N[C@@H](CC(=O)O)C(=O)N3)NC(=O)[C@H]([C@@H](C)CC)NC2=O [MCoFx1 acyclic] (H-DGGICPRIGRLCRRDSDCPGACICRATRFCGSGY-OH; disulfide 5-22, 12-24, 18-30)",Kd,[1],1.89 ± 0.04 nM
same,Kd,[2],59.6 nM
same,Ki,[3],0.73 ± 0.2 nM
same,resistance to serum proteases (in words),"[4]; human serum, 37° C., up to 24 h",highly resistant to serum proteases
"CC[C@H](C)[C@@H]1NC(=O)[C@@H]2CSSC[C@H](NC(=O)[C@@H](NC(=O)CNC(=O)CNC(=O)[C@@H](N)CC(=O)O)C(C)C)C(=O)N3CCC[C@H]3C(=O)N[C@@H](CCCNC(=N)N)C(=O)N[C@@H](C(C)C)C(=O)NCC(=O)N[C@@H](Cc3c[nH]c4ccccc34)C(=O)N[C@@H](CCCNC(=N)N)C(=O)N[C@H]3CSSC[C@H](NC1=O)C(=O)N[C@@H](Cc1ccc(O)cc1)C(=O)N1CCC[C@H]1C(=O)N[C@@H]([C@@H](C)O)C(=O)N[C@@H](CCCCN)C(=O)N[C@@H](Cc1c[nH]c4ccccc14)C(=O)N[C@H](C(=O)NCC(=O)N[C@@H](CO)C(=O)NCC(=O)N[C@@H](CO)C(=O)O)CSSC[C@H](NC(=O)[C@H](CC(=O)O)NC(=O)[C@H](CO)NC(=O)[C@H](CC(=O)O)NC(=O)[C@H](CCCNC(=N)N)NC(=O)[C@H](CCCNC(=N)N)NC3=O)C(=O)N1CCC[C@H]1C(=O)NCC(=O)N[C@@H](C)C(=O)N2 [MCoFx4 acyclic] (H-DGGVCPRVGWRCRRDSDCPGACICYPTKWCGSGS-OH; disulfide 5-22, 12-24, 18-30)",Kd,[1],73.8 ± 6.3 nM
same,Kd,[2],15.1 nM
same,Ki,[3],17 ± 0.9 nM
"CC[C@H](C)[C@@H]1NC(=O)[C@@H]2CSSC[C@@H]3NC(=O)[C@H](C(C)C)NC(=O)CNC(=O)CNC(=O)[C@H](CC(=O)O)NC(=O)[C@H](CO)NC(=O)CNC(=O)[C@H](CO)NC(=O)CNC(=O)[C@@H]4CSSC[C@H](NC(=O)[C@H](CC(=O)O)NC(=O)[C@H](CO)NC(=O)[C@H](CC(=O)O)NC(=O)[C@H](CCCNC(=N)N)NC(=O)[C@H](CCCNC(=N)N)NC(=O)[C@H](CSSC[C@H](NC1=O)C(=O)N[C@@H](Cc1ccc(O)cc1)C(=O)N1CCC[C@H]1C(=O)N[C@@H]([C@@H](C)O)C(=O)N[C@@H](CCCCN)C(=O)N[C@@H](Cc1c[nH]c5ccccc15)C(=O)N4)NC(=O)[C@H](CCCNC(=N)N)NC(=O)[C@H](Cc1c[nH]c4ccccc14)NC(=O)CNC(=O)[C@H](C(C)C)NC(=O)[C@H](CCCNC(=N)N)NC(=O)[C@@H]1CCCN1C3=O)C(=O)N1CCC[C@H]1C(=O)NCC(=O)N[C@@H](C)C(=O)N2 [MCoFx4 cyclic] (cyclo(ACICYPTKWCGSGSDGGVCPRVGWRCRRDSDCPG); disulfide 2-19, 4-26, 10-32)",Kd,"[1]; Table 8, cyclic form, read-out: KD (nM) FXIIa Cyclic",14.4 ± 1.1 nM
same,Kd,"[2]; Table 8, cyclic form, read-out: KD (nM) Trypsin Cyclic",4.09 nM
same,Ki,"[3]; Table 7, FXIIa, cyclic form of the peptide, read-out: Ki (nM) Cyclic",5.5 ± 0.5 nM
"CC[C@H](C)[C@@H]1NC(=O)[C@@H]2CSSC[C@@H]3NC(=O)[C@H](C(C)C)NC(=O)CNC(=O)CNC(=O)[C@H](CC(=O)O)NC(=O)[C@H](CO)NC(=O)CNC(=O)[C@H](CO)NC(=O)CNC(=O)[C@@H]4CSSC[C@H](NC(=O)[C@H](CC(=O)O)NC(=O)[C@H](CO)NC(=O)[C@H](CC(=O)O)NC(=O)[C@H](CCCNC(=N)N)NC(=O)[C@H](CCCNC(=N)N)NC(=O)[C@H](CSSC[C@H](NC1=O)C(=O)N[C@@H](CCCNC(=N)N)C(=O)N[C@@H](C)C(=O)N[C@@H]([C@@H](C)O)C(=O)N[C@@H](CCCNC(=N)N)C(=O)N[C@@H](Cc1ccccc1)C(=O)N4)NC(=O)[C@H](CCCCN)NC(=O)[C@H](CCCCN)NC(=O)[C@H](CC(C)C)NC(=O)[C@H]([C@@H](C)CC)NC(=O)[C@H](CCCCN)NC(=O)[C@@H]1CCCN1C3=O)C(=O)N1CCC[C@H]1C(=O)NCC(=O)N[C@@H](C)C(=O)N2 [cMCoTI-fxL5] (cyclo(ACICRATRFCGSGSDGGVCPKILKKCRRDSDCPG); disulfide 2-19, 4-26, 10-32)",Ki,[5],17 nM
same,Ki,[6],31 nM
same,IC50,[7],> 5 µM
same,inhibition at 5 µM,[7]; read-out: percent inhibition FXa,0%
same,Ki,[8],0.08 nM
same,IC50,[9],> 5 µM
same,inhibition at 5 µM,[9]; read-out: percent inhibition Plasma kallikrein,0%
same,IC50,[10],> 5 µM
same,inhibition at 5 µM,[10]; read-out: percent inhibition FXIa,1%
same,IC50,[11],> 5 µM
same,inhibition at 5 µM,[11]; read-out: percent inhibition Thrombin,3%
same,Ki,[3],66 nM
same,IC50,[12],> 5 µM
same,inhibition at 5 µM,[12]; read-out: percent inhibition uPA,0%
same,IC50,[13],> 5 µM
same,inhibition at 5 µM,[13]; read-out: percent inhibition tPA,1%
EAIYAAPFAKKK [reference compound],time to degradation in human serum,[4],≤ 1 h
